We go through seven molecules from patent US20230277549A1, “NOTCH SIGNALING INHIBITORS FOR TREATING OBESITY AND METABOLIC DISORDERS” (Purdue Research Foundation, priority 2020, published 2023).

The structures appear in SMILES notation. Entries after “also recorded” stand apart in the source; their conditions may differ.

Data set [1] deals with Notch signaling (target gene Hes1). The data set can be described thus: Notch inhibition: Hes1 mRNA by real-time qPCR in 3T3-L1 preadipocytes. In kind it is cell-based. The following applies: for mRNA expression of Hes1: 3T3-L1 preadipocytes, 1 μM, 12 h, real-time qPCR; for dose dependence of the inhibitory effect on Hes1 expression: 0.5, 1 and 10 μM. The method, then:
(§1) Cell culture and drug treatment. 3T3-L1 preadipocytes were cultured in Dulbecco's modified Eagle medium (DMEM) supplemented with 10% fetal bovine serum (FBS) and 1% antibiotics (penicillin and streptomycin) at 37° C., 5% CO2, and 95% relative humidity. The medium was routinely changed every two days and cells were separated by trypsin before reaching confluency. Beige adipocyte differentiation was induced by treating confluent preadipocytes with the adipogenic induction medium containing DMEM, 10% FBS, 0.5 mM isobutylmethylxanthine, 1 μM dexamethasone, 1.75 μM insulin, and 1 μM rosiglitazone. Three days after induction, medium was switched to the differentiation medium containing DMEM, 10% FBS, 850 nM insulin, and 10 nM triiodothyronine until adipocytes matured. For the drug treatment, a series of GSIs were added to the cells in culture medium at the same final drug concentrations of 0.5, 1, and 10 μM, respectively, and cells were induced for differentiation.
(§2) RNA extraction, cDNA synthesis, and real-time qPCR. Total RNA was extracted from cells using TRIzol (Thermo Fisher Scientific, Waltham, Mass., USA) in accordance with the manufacturer's protocol. RNA was treated with RNase-free DNase I to remove contaminating genomic DNA and the purity as well as concentration of extracted RNA were determined by a spectrophotometer NanoDrop 2000c (Thermo Fisher Scientific, Waltham, Mass., USA). Subsequently, 2 μg of RNA was reverse transcribed to cDNA using random hexamer primers with M-MLV reverse transcriptase (Invitrogen, Carlsbad, Calif., USA). Real-time qPCR was performed in the Roche Light Cycler 480 PCR system (Roche, Basel, Switzerland) with SYBR Green master mix.
(§3) The 2^−ΔΔCT method was used to analyze the relative changes of gene expression after normalization to the expression of β-Actin.
To determine the impact of GSIs on inhibition of Notch signaling, 3T3-L1 preadipocytes were treated with a series of GSIs (see Table 1) at a concentration of 1 μM and the change in mRNA expression of Hes1, a Notch downstream transcriptional target gene, was evaluated using real-time qPCR.
To further examine the relationship between drug concentration and inhibitory effect of GSIs, cells were treated with the four most promising inhibitors (i.e., RO4929097, PF-03084014, LY3039478, and BMS-906024) at three gradient concentrations (0.5, 1, and 10 μM).
Effect of RO4929097-PLGA NPs on the Notch signaling target gene. 3T3-L1 preadipocytes were treated with DMSO, PLGA NPs (0.1 mg/mL), DBZ (10 μM), RO4929097 (1 μM) or RO4929097-PLGA NPs (0.1 mg/ml) for 12 h at 37° C. in a 5% CO2 incubator. The Notch target Hes1 mRNA expression was analyzed by qRT-PCR (FIG. 8). Each bar is the mean±SEM of 4 to 5 replicates in each group and the data were analyzed by one-way ANOVA followed by Tukey's post hoc comparison test. Asterisks refer to statistical difference between the indicated treatment groups (*p<0.05, **p<0.01, and ***p<0.001).
On the technique in general: Quantitative PCR measures a nucleic acid by following its amplification.

Data set [2] deals with differentiated 3T3-L1 cells. The data set can be described thus: mRNA expression of adipogenic, mitochondrial and browning marker genes by real-time qPCR. The note with it: for increase of mRNA expression of Tmem26: 0.5, 1 and 10 μM, highest dose significant versus control. The data set is classed as cell-based. As for the experimental part:
as §1, §2, §3

The subject of data set [3] is UCP1, PPARγ, and C/EBPα in differentiated 3T3-L1 cells. The data set can be described thus: Western blot of UCP1, PPARγ and C/EBPα protein. The data set is classed as cell-based. The note with it: for protein expression of UCP1 / decrease of the upregulated UCP1 protein expression: western blot; for decrease of the upregulated UCP1 protein expression: increasing the concentration from 1 to 10 μM. The method, then: as §1
Protein extraction and western blotting. Total protein was extracted from cells using RIPA buffer containing 25 mM Tris-HCl (pH 8.0), 150 mM NaCl, 1 mM EDTA, 0.5% NP-40, 0.5% sodium deoxycholate and 0.1% SDS. Protein concentrations were determined by Pierce BCA Protein Assay Reagent (Pierce Biotechnology, Waltham, Mass., USA). Proteins were separated by SDS-PAGE and transferred to a polyvinylidene fluoride membrane (Millipore, Burlington, Mass., USA). The membrane was then blocked with 5% fat-free milk for 1 h at room temperature and incubated with primary antibodies in 5% milk overnight at 4° C. as well as secondary antibodies for 1 h at room temperature. Primary antibodies, including UCP1 (1:1000 dilution), C/EBPα (1:500 dilution), PPARγ (1:500 dilution), and β-Actin (1:5000 dilution), were used. HRP-conjugated secondary antibodies, including anti-rabbit and anti-mouse IgG, were also used at a dilution of 1:10,000. A luminol reagent for enhanced chemiluminescence detection of western blots (Santa Cruz Biotechnology, Dallas, Tex., USA) was employed and signals were detected with a FluorChem R imaging system (ProteinSimple, San Jose, Calif., USA).
The protein expression of adipogenic markers, such as PPARγ and C/EBPα, was also evaluated.
In general terms: In western blotting, separated proteins are transferred to a membrane and probed.

Data set [4] deals with UCP1 in differentiated 3T3-L1 cells. The data set can be described thus: UCP1 immunofluorescence staining. In kind it is cell-based. The note with it: 1 μM.
Method: Immunofluorescence staining. After washing with phosphate-buffered saline (PBS), cells were fixed with 4% PFA, quenched with glycine (100 mM glycine and 0.1% sodium azide in PBS), and blocked with PBS containing 2% BSA, 5% goat serum, and 0.2% Triton X-100 for 1 h at room temperature. Subsequently, cells were incubated with the UCP1 antibody diluted at 1:500 in the same blocking buffer overnight at 4° C. and the Alexa Fluor® 488 conjugated goat anti-rabbit IgG (1:1000 dilution) for 1 h at room temperature. Nuclei were counterstained with 4′,6-diamidino-2-phenylindole (DAPI, 1 μg/mL), which was premixed with the secondary antibody.
In data set [5] the test system is 3T3-L1 preadipocytes. The data set can be described thus: Cell viability, MTS assay. The following applies: 0.5, 1 and 10 μM, 12 h. As for the experimental part:
Assessment of cell viability. In vitro cell viability after incubation with various GSIs at three concentrations was determined using an MTS assay, which is based on the mitochondrial conversion of a tetrazolium salt. 3T3-L1 preadipocytes were seeded onto 96-well plates at a density of 1×10^4 cells per well and cultured in 5% CO2 at 37° C. for 48 h. GSIs were then added to the cells in culture medium at the same final drug concentrations of 0.5, 1, and 10 μM, respectively, and cells were further incubated at 37° C. for 12 h. Subsequently, 20 μL of CellTiter 96® AQueous one solution reagent was added to each well in 100 μL of culture medium and incubated at 37° C. in a humidified, 5% CO2 atmosphere for 2 h. The absorbance was measured using a Tecan Spark™ 10M microplate reader (Tecan, Mannedorf, Switzerland) at a wavelength of 490 nm with background subtraction at 680 nm. Cells incubated with 0.1% Triton X-100 and dimethyl sulfoxide (DMSO) in culture medium served as positive and negative controls, respectively.
Effects of GSIs on cell viability. To investigate effects of GSIs on cell viability, 3T3-L1 preadipocytes were treated with GSIs at three gradient concentrations (0.5, 1, and 10 μM) for 12 h.
Background: Tetrazolium dyes change colour on reduction, which living cells bring about.

Data set [6] has as its system Notch (Hes1) in human tumor-derived cells. The following applies: cited from earlier work.
Where [7] appears, read: all the concentrations (0.5, 1, 10 μM).

As for `CC(C)[C@H](O)C(=O)N[C@@H](C)C(=O)N[C@@H]1C(=O)N(C)CCc2ccccc21` [LY450139], in data set [1], the “mRNA expression of Hes1” value was “did not significantly decrease”.
`NC(=O)[C@@H](CCC(F)(F)F)N(Cc1ccc(-c2ncon2)cc1F)S(=O)(=O)c1ccc(Cl)cc1` [BMS-708163]: in data set [1], the “mRNA expression of Hes1” value is on record as “did not significantly decrease; also recorded: relatively moderate inhibitory effect”.
Still for that read-out and setting: the result for `O=C(O)CC[C@H]1CC[C@@](c2cc(F)ccc2F)(S(=O)(=O)c2ccc(Cl)cc2)CC1` [MK-0752] reads “did not significantly decrease; also recorded: relatively moderate inhibitory effect”.
Turning to `CN1C(=O)[C@@H](NC(=O)[C@H](CCC(F)(F)F)[C@H](CCC(F)(F)F)C(N)=O)N=C(c2ccccc2)c2ccccc21` [BMS-906024], in data set [1], the “dose dependence of the inhibitory effect on Hes1 expression” value (“dose dependence of the inhibitory effect” for short) is listed as “more significant with increasing the drug concentration” and the “mRNA expression of Hes1” value was “significantly inhibited”. Besides, the “increase of mRNA expression of Tmem26” value in data set [2] is “in a dose-dependent manner”. For the same molecule, in data set [3] (1 μM), the “protein expression of C/EBPα” value is “significantly upregulated” and the “protein expression of UCP1” value is given as “minimal impact”. In data set [4], the “UCP1 positive adipocytes (UCP1 expression)” value was “minimal efficiency”.
Take `CCC[C@H](N[C@H]1CCc2cc(F)cc(F)c2C1)C(=O)Nc1cn(C(C)(C)CNCC(C)(C)C)cn1` [PF-03084014]: in data set [1], the “dose dependence of the inhibitory effect” value is given as “more significant with increasing the drug concentration” and the “mRNA expression of Hes1” value was “significantly inhibited”. The “cell viability / cytotoxicity” value in data set [5] is listed as “decreased with increasing the drug concentration”. Also, the “mRNA expression of Cox5B” value in data set [2] (1 μM) is “Significant upregulation”. The “mRNA expression of Ppargc1α” value in data set [2] (10 μM) is “significant changes”. The “increase of mRNA expression of Tmem26” value in data set [2] was “in a dose-dependent manner”. For the same molecule, the “protein expression of UCP1” value in data set [3] (1 μM) is reported as “significantly upregulated”. The “decrease of the upregulated UCP1 protein expression” value in data set [3] was “around 50%”.
For the molecule `CC(C)(C(=O)NCC(F)(F)C(F)(F)F)C(=O)N[C@@H]1C(=O)Nc2ccccc2-c2ccccc21` [RO4929097], in data set [1], the “dose dependence of the inhibitory effect” value is on record as “did not result in a dose-dependent depression” and the “mRNA expression of Hes1” value is reported as “significantly inhibited”. In data set [5], the “cell viability / cytotoxicity” value is on record as “decreased with increasing the drug concentration”. Also, in data set [2] (setting [7]), the “mRNA expression of Cox5B” value is listed as “increased”. For the same molecule, the “protein expression of UCP1” value in data set [3] (1 μM) is on record as “significantly upregulated”. In addition, in data set [3] (setting [7]), the “protein expression of C/EBPα” value is reported as “significantly upregulated”. In addition, the “decrease of the upregulated UCP1 protein expression” value in data set [3] is given as “around 50%”. In addition, in data set [6], the “concentration above which no further reduction in mRNA level of Hes1” value was > 1 µM, the “concentration above which no further reduction in protein level of Hes1” value is “higher than 0.5 μM” and the “concentration at which dose-dependent inhibition of Notch begins” value was ≥ 0.1 µM.
`C[C@H](NC(=O)CCC(F)(F)F)C(=O)N[C@@H]1C(=O)N(CCO)c2ncccc2-c2ccccc21` [LY3039478]: in data set [1], the “dose dependence of the inhibitory effect” value is listed as “more significant with increasing the drug concentration” and the “mRNA expression of Hes1” value is reported as “significantly inhibited”. Besides, the “cell viability / cytotoxicity” value in data set [5] is “did not result in any significant cytotoxicity”. In addition, in data set [2] (10 μM), the “mRNA expression of Cox5B” value is reported as “Significant upregulation” and the “mRNA expression of Ppargc1α” value is recorded as “significant changes”. Further, the “increase of mRNA expression of Tmem26” value in data set [2] is listed as “in a dose-dependent manner”. Further, the “protein expression of UCP1” value in data set [3] (1 μM) is reported as “significant upregulation”. In addition, in data set [3] (setting [7]), the “protein expression of C/EBPα” value is on record as “significantly upregulated”. Further, in data set [3] (high concentration of 10 μM), the “protein expression of UCP1” value is recorded as “did not significantly change”.
